Source: patent publication US20260102383A1, “LPAR1 Inhibitors” (AbbVie Inc., priority 2024, published 2026)
Read-outs that look alike come from different tables or passages of the source.

Target: T1, human LPAR1 (Homo sapiens, UniProt Q92633)
T1 construct: host or cells: TangoEDG2-bla U2OS cells
Test: Arrestin assay (Arrestin Reporter EDG2-bla U2OS), inhibition of LPA-stimulated signal
Type: cell-based
Settings: TangoEDG2-bla U2OS cells expressing human LPAR1, 0.25 μM LPA
In short: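 IC50 comes from a variable-slope 4-parameter fit of % inhibition, calculated from the beta-lactamase FRET ratio (emission 460/530 nm, excitation 409 nm, 2 h development at RT). Compounds, 10 μM down to 0.00006 μM in 3-fold steps, were given 1 h before 0.25 μM final LPA for 3 h in TangoEDG2-bla U2OS cells.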

[1] = read-out: Arrestin Reporter EDG2-bla U2OS Human Merged IC50

T1 sequence (Q92633 whole entry): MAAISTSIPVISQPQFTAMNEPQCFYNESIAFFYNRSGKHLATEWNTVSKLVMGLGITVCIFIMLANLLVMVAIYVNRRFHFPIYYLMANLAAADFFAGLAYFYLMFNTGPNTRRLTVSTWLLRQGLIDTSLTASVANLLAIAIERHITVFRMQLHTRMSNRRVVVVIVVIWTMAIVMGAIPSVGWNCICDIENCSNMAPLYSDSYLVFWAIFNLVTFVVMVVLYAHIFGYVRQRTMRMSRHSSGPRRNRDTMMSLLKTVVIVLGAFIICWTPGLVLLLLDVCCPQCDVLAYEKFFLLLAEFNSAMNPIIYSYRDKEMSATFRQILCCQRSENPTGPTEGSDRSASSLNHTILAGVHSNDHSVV

IC50 [1] [nM]	IC50 (read-out: Arrestin Reporter EDG2-bla U2OS Human IC50) [nM]	Structure (SMILES)
72.4	–	CC(C)c1ccnn1C1(C(=O)Nc2ccc(Cl)cc2OC(F)F)CCN([C@H]2C[C@](O)(C(=O)O)C2)CC1 [Compound 164, (1s,3s)-3-[4-[[4-chloro-2-(difluoromethoxy)phenyl]carbamoyl]-4-(5-isopropylpyrazol-1-yl)-1-piperidyl]-1-hydroxy-cyclobutanecarboxylic acid]
137	–	CC(C)c1ccnn1C1(C(=O)Nc2ccc(Cl)cc2OC(F)F)CCN(C[C@@H](C(=O)O)N2CCOC(C)(C)C2)CC1 [Compound 165, (2S)-3-[4-[[4-chloro-2-(difluoromethoxy)phenyl]carbamoyl]-4-(5-isopropylpyrazol-1-yl)-1-piperidyl]-2-(2,2-dimethylmorpholin-4-yl)propanoic acid]
120	–	CC(C)c1ccnn1C1(C(=O)Nc2ccc(Cl)cc2OC(F)F)CCN(C[C@H](C(=O)O)N2CCOC(C)(C)C2)CC1 [Compound 166]
108	–	CC(C)c1ccnn1C1(C(=O)Nc2ccc(Cl)cc2OC(F)F)CCN(C[C@@H](C(=O)O)N2C[C@H](C)O[C@@H](C)C2)CC1 [Compound 167, (2S)-3-[4-[[4-chloro-2-(difluoromethoxy)phenyl]carbamoyl]-4-(5-isopropylpyrazol-1-yl)-1-piperidyl]-2-[(2S,6S)-2,6-dimethylmorpholin-4-yl]propanoic acid]
28.8	–	CC(C)c1ccnn1C1(C(=O)Nc2ccc(Cl)cc2OC(F)F)CCN(C[C@@H](CC#N)C(=O)O)CC1 [Compound 168, (2R)-2-[[4-[[4-chloro-2-(difluoromethoxy)phenyl]carbamoyl]-4-(5-isopropylpyrazol-1-yl)-1-piperidyl]methyl]-3-cyano-propanoic acid]
–	26.2	COC[C@@H](CN1CCC(C(=O)Nc2ccc(Cl)cc2OC(F)F)(n2ncc(F)c2C(C)C)CC1)C(=O)O [Compound 169, (2R)-2-[[4-[[4-chloro-2-(difluoromethoxy)phenyl]carbamoyl]-4-(4-fluoro-5-isopropyl-pyrazol-1-yl)-1-piperidyl]methyl]-3-methoxy-propanoic acid]
92.6	–	CC(C)c1ccnn1C1(C(=O)Nc2ccc(Cl)cc2OC(F)F)CCN(CC(C(=O)O)C2CCOC(C)(C)C2)CC1 (stereo not drawn) [Compound 171, 3-[4-[[4-chloro-2-(difluoromethoxy)phenyl]carbamoyl]-4-(5-isopropylpyrazol-1-yl)-1-piperidyl]-2-(2,2-dimethyltetrahydropyran-4-yl)propanoic acid]
71	–	CC(C)c1ccnn1C1(C(=O)Nc2ccc(Cl)cc2OC(F)F)CCN(C[C@@]2(C(=O)O)CCOC(C)(C)C2)CC1 [Compound 172, (4R)-4-[[4-[[4-chloro-2-(difluoromethoxy)phenyl]carbamoyl]-4-(5-isopropylpyrazol-1-yl)-1-piperidyl]methyl]-2,2-dimethyl-tetrahydropyran-4-carboxylic acid]
31	–	CC(C)c1ccnn1C1(C(=O)Nc2ccc(Cl)cc2OC(F)F)CCN(C[C@]2(C(=O)O)CCOC(C)(C)C2)CC1 [Compound 173, (4S)-4-[[4-[[4-chloro-2-(difluoromethoxy)phenyl]carbamoyl]-4-(5-isopropylpyrazol-1-yl)-1-piperidyl]methyl]-2,2-dimethyl-tetrahydropyran-4-carboxylic acid]
122	–	CC(C)c1ccnn1C1(C(=O)Nc2ccc(Cl)cc2OC(F)F)CCN(C[C@]2(C(=O)O)CC[C@](C)(O)CC2)CC1 [Compound 175, (1r,4r)-1-[[4-[[4-chloro-2-(difluoromethoxy)phenyl]carbamoyl]-4-(5-isopropylpyrazol-1-yl)-1-piperidyl]methyl]-4-hydroxy-4-methyl-cyclohexanecarboxylic acid]
95.5	–	CC1(C)OCc2cnn(C3(C(=O)Nc4ccc(Cl)cc4OC(F)F)CCN(C[C@H](C(=O)O)C4CCOCC4)CC3)c21 [Compound 176, (2R)-3-[4-[[4-chloro-2-(difluoromethoxy)phenyl]carbamoyl]-4-(6,6-dimethyl-4H-furo[3,4-c]pyrazol-1-yl)-1-piperidyl]-2-tetrahydropyran-4-yl-propanoic acid]
92.5	–	CC(C)c1ccnn1C1(C(=O)Nc2ccc(Cl)cc2OC(F)F)CCN(CC2(C(=O)O)[C@@H]3COC[C@@H]32)CC1 (stereo partly drawn) [Compound 177, (1S,5R)-6-[[4-[[4-chloro-2-(difluoromethoxy)phenyl]carbamoyl]-4-(5-isopropylpyrazol-1-yl)-1-piperidyl]methyl]-3-oxabicyclo[3.1.0]hexane-6-carboxylic acid]
123	–	COC1CN([C@@H](CN2CCC(C(=O)Nc3ccc(Cl)cc3OC(F)F)(n3nccc3C(C)C)CC2)C(=O)O)C1 [Compound 178, (2S)-3-[4-[[4-chloro-2-(difluoromethoxy)phenyl]carbamoyl]-4-(5-isopropylpyrazol-1-yl)-1-piperidyl]-2-(3-methoxyazetidin-1-yl)propanoic acid]
174	–	CC(C)c1ccnn1C1(C(=O)Nc2ccc(Cl)cc2OC(F)F)CCN(Cc2c(C(=O)O)nnn2C)CC1 [Compound 179, 5-[[4-[[4-chloro-2-(difluoromethoxy)phenyl]carbamoyl]-4-(5-isopropylpyrazol-1-yl)-1-piperidyl]methyl]-1-methyl-triazole-4-carboxylic acid]
48.8	–	CC(C)c1ccnn1C1(C(=O)Nc2ccc(Cl)cc2OC(F)F)CCN(CC2(C(=O)O)C[C@@H](C)O[C@@H](C)C2)CC1 (stereo partly drawn) [Compound 180, (2R,6S)-4-[[4-[[4-chloro-2-(difluoromethoxy)phenyl]carbamoyl]-4-(5-isopropylpyrazol-1-yl)-1-piperidyl]methyl]-2,6-dimethyl-tetrahydropyran-4-carboxylic acid]
87.7	–	COC1(C(=O)O)CC(N2CCC(C(=O)Nc3ccc(Cl)cc3OC(F)F)(n3nccc3C(C)C)CC2)C1 (stereo not drawn) [Compound 181, 3-[4-[[4-chloro-2-(difluoromethoxy)phenyl]carbamoyl]-4-(5-isopropylpyrazol-1-yl)-1-piperidyl]-1-methoxy-cyclobutanecarboxylic acid]
36.3	–	CC(C)c1ccnn1C1(C(=O)Nc2ccc(Cl)cc2OC(F)F)CCN(C[C@@H](CO)C(=O)O)CC1 [Compound 182]
39.4	–	CC(C)c1ccnn1C1(C(=O)Nc2ccc(Cl)cc2OC(F)F)CCN(C[C@H](CO)C(=O)O)CC1 [Compound 183, (2R)-2-[[4-[[4-chloro-2-(difluoromethoxy)phenyl]carbamoyl]-4-(5-isopropylpyrazol-1-yl)-1-piperidyl]methyl]-3-hydroxy-propanoic acid]
75.9	–	CO[C@H]1CC[C@H]([C@@H](CN2CCC(C(=O)Nc3ccc(Cl)cc3OC(F)F)(n3nccc3C(C)C)CC2)C(=O)O)CC1 [Compound 187, (2S)-3-[4-[[4-chloro-2-(difluoromethoxy)phenyl]carbamoyl]-4-(5-isopropylpyrazol-1-yl)-1-piperidyl]-2-((1r,4S)-4-methoxycyclohexyl) propanoic acid]
38.3	–	COCCC(CN1CCC(C(=O)Nc2ccc(Cl)cc2OC(F)F)(n2ncc(F)c2C(C)C)CC1)C(=O)O (stereo not drawn) [Compound 188, 2-[[4-[[4-chloro-2-(difluoromethoxy)phenyl]carbamoyl]-4-(4-fluoro-5-isopropyl-pyrazol-1-yl)-1-piperidyl]methyl]-4-methoxy-butanoic acid]
31.2	–	Cc1cnn(CC(CN2CCC(C(=O)Nc3ccc(Cl)cc3OC(F)F)(n3nccc3C(C)C)CC2)C(=O)O)c1 (stereo not drawn) [Compound 189, 2-[[4-[[4-chloro-2-(difluoromethoxy)phenyl]carbamoyl]-4-(5-isopropylpyrazol-1-yl)-1-piperidyl]methyl]-3-(4-methylpyrazol-1-yl)propanoic acid]
37.9	–	COCC[C@@H](CN1CCC(C(=O)Nc2ccc(Cl)cc2OC(F)F)(n2ncc(F)c2C(C)C)CC1)C(=O)O [Compound 190, (2S)-2-[[4-[[4-chloro-2-(difluoromethoxy)phenyl]carbamoyl]-4-(4-fluoro-5-isopropyl-pyrazol-1-yl)-1-piperidyl]methyl]-4-methoxy-butanoic acid]
33.4	–	COCC[C@H](CN1CCC(C(=O)Nc2ccc(Cl)cc2OC(F)F)(n2ncc(F)c2C(C)C)CC1)C(=O)O [Compound 191, (2R)-2-[[4-[[4-chloro-2-(difluoromethoxy)phenyl]carbamoyl]-4-(4-fluoro-5-isopropyl-pyrazol-1-yl)-1-piperidyl]methyl]-4-methoxy-butanoic acid]
31.3	–	COc1cnn(CC(CN2CCC(C(=O)Nc3ccc(Cl)cc3OC(F)F)(n3nccc3C(C)C)CC2)C(=O)O)c1 (stereo not drawn) [Compound 193, 2-[[4-[[4-chloro-2-(difluoromethoxy)phenyl]carbamoyl]-4-(5-isopropylpyrazol-1-yl)-1-piperidyl]methyl]-3-(4-methoxypyrazol-1-yl)propanoic acid]
67.6	–	CC(C)c1ccnn1C1(C(=O)Nc2ccc(Cl)cc2OC(F)F)CCN(C[C@@H](C(=O)O)[C@H]2C[C@@H](C)O[C@@H](C)C2)CC1 [Compound 195, (25)-3-[4-[[4-chloro-2-(difluoromethoxy)phenyl]carbamoyl]-4-(5-isopropylpyrazol-1-yl)-1-piperidyl]-2-[(2R,4r,6S)-2,6-dimethyltetrahydropyran-4-yl]propanoic acid]
34.7	–	CC(C)c1ccnn1C1(C(=O)Nc2ccc(Cl)cc2OC(F)F)CCN(CC(C(=O)O)C2COCCOC2)CC1 (stereo not drawn) [Compound 196, 3-[4-[[4-chloro-2-(difluoromethoxy)phenyl]carbamoyl]-4-(5-isopropylpyrazol-1-yl)-1-piperidyl]-2-(1,4-dioxepan-6-yl)propanoic acid]
40.4	–	COC1(C(=O)O)CC(N2CCC(C(=O)Nc3ccc(Cl)cc3OC(F)F)(n3ncc(F)c3C(C)C)CC2)C1 (stereo not drawn) [Compound 199, 3-[4-[[4-chloro-2-(difluoromethoxy)phenyl]carbamoyl]-4-(4-fluoro-5-isopropyl-pyrazol-1-yl)-1-piperidyl]-1-methoxy-cyclobutanecarboxylic acid]
